This assay concerns Haemunchus contortus. Kind of assay: Anthelmintic activity in lambs artificially infected with abomasal nematodes (coproscopy up to 14 days after application, then necropsy with helminthological work-up). It counts as in vivo. The note with it: Lämmer 30 bis 40 kg. The text has this:
Die anthelminthische Wirkung der Elaiophylinderivate wurde an Lämmern mit 30 bis 40 kg Körpergewicht untersucht. Dazu wurden die Lämmer artifiziell mit Infektionsstadien von Labmagennematoden (Haemunchus contortus) infiziert. Nach Abschluß der Entwicklungszeit (Präpatenzperiode) der Nematoden erfolgte die Applikation der Elaiophylinderivate.
Durch koproskopische Untersuchungen vor und bis zu 14 Tagen nach der Applikation der Elaiophylinderivate und anschließender Sektion mit helminthologischer Aufarbeitung wurde die prozentuale Reduktion der Schaf-Nematoden ermittelt (s. Tabelle 7). Als Vergleichssubstanz diente Elaiophylin. Zusätzlich wurde auch noch die antibakterielle Aktivität der erfindungsgemäßen Elaiophylinderivate gegen Staph. aureus und Strept. pyogenes ermittelt. Überraschenderweise zeigen die erfindungsgemäßen Verbindung keine oder nur sehr geringe antibakterielle Aktivität. Gerade deshalb eignen sich die erfindungsgemäßen Verbindungen insbesondere für den Einsatz als Anthelminthika, da hier eine antibakterielle Wirkung unerwünscht ist.

The source of these data is patent publication EP0339444A1, “Elaiophylin derivatives, process for their preparation and use as medicaments” (HOECHST AKTIENGESELLSCHAFT, priority 1988, dated 1989).

`CCC1C(C)OC(O)(C(C)C(O)C(C)C2OC(=O)C3=NNCC3/C=C/C(C)C(C(C)C(O)C(C)C3(O)CC(OC4CC(O)C(O)C(C)O4)C(CC)C(C)O3)OC(=O)C3=NNCC3/C=C/C2C)CC1OC1CC(O)C(O)C(C)O1` (stereo not shown) [Verbindung 1]: the “Reduktion v. H. contortus (%)” value (Dosierung 5,0 mg/kg (oral)) is 35-45%. The same measure, in the same setting: as for `CCC1C(C)OC(O)(C(C)C(O)C(C)C2OC(=O)C3=NNCC3/C=C/C(C)C(C(C)C(O)C(C)C3(O)CC(OC4CC(OC(C)=O)C(OC(C)=O)C(C)O4)C(CC)C(C)O3)OC(=O)C3=NNCC3/C=C/C2C)CC1OC1CC(OC(C)=O)C(OC(C)=O)C(C)O1` (stereo not shown) [Verbindung 2], the figure is 40-50%. For `CCOC(=O)C1NN=C2C(=O)OC(C(C)C(O)C(C)C3(O)CC(OC4CC(O)C(O)C(C)O4)C(CC)C(C)O3)C(C)/C=C/C3C(=NNC3C(=O)OCC)C(=O)OC(C(C)C(O)C(C)C3(O)CC(OC4CC(O)C(O)C(C)O4)C(CC)C(C)O3)C(C)/C=C/C21` (stereo not shown) [Verbindung 6], the “Reduktion v. H. contortus (%)” value was 50-60% (Dosierung 2,5 mg/kg (s.c.)) and 50-60% (Dosierung 5,0 mg/kg (oral)).
